Laboratory results: patent publication US20020035998A1, “Method for treatment of cancer and infectious disease” (priority 1995, published 2002)

What was measured:
[1] = system: K562 target cells; assay: NK cell cytotoxicity (NKCC), 16-hour 51Cr-release assay against K562 target cells; format: cell-based, human; conditions: for cytotoxicity against K562 in the NK cell-concentrated lymphocyte fraction: eluted lymphocytes without monocytes, 16-hour assay; for basal cytotoxicity of lymphocytes in mixtures of monocytes and lymphocytes / monocyte induced inhibition of the NK cell response to IFN-α: mixtures of eluted monocytes and NK cell-enriched lymphocytes; for NK cell cytotoxicity (NKCC) after treatment: serotonin 10^−4 M and/or IFN-α 25 U/ml, 16 h, 10^4 K562, mean ± SEM of six
Text: (§1) MNC were obtained from peripheral venous blood from healthy human blood donors by Ficoll-Hypaque centrifuging, followed by Percoll density-gradient fractionation (Timonen and Saksela, 1980, J. Immunol. Methods 36, 285-291; Hellstrand and Hermodsson, 1990, Scand. J. Immunol. 31, 631-645).
(§2) The target cells used in these experiments were K562, an NK-cell sensitive erythroleukemic cell line, or Daudi, a relatively NK-insensitive EBV-transformed B-cell lymphoblastoid cell line.
(§3) The NKCC was determined six times as the specific ^51Cr-release for a NMNC: target-cell ratio of between 30:1 and 3.8:1 in two-fold dilution gradients. The suspensions of MNC/target cells were incubated in microplates at 37° C. for 6 hours (Daudi) or 16 hours (K562). The supernatant solution was then collected and examined for radioactivity in a gamma counter. The maximum ^51Cr-release was measured in target cell cultures treated with Triton X-100. The NKCC was calculated as the cell lysis % by the formula 100×(experimental release−spontaneous release/maximum release−spontaneous release)=cell lysis %.
A low-density Percoll fraction was separated by counterflow centrifuge elusion (CCE) in a monocyte and in a lymphocyte fraction. The monocyte fraction was concentrated to >90% purity whereupon the contaminating cells consisted of large lymphocytes. The lymphocyte fractions obtained by CCE contained <3% monocytes, determined by morphology and Leu-M3 (CD14) antigen expression. The lymphocytes were […], […] , CD3^+/16^−/56^− T cells (45-50%), CD3^+/16^+/56^+ cells (1-5%), determined by flow cytometry.
J The eluted monocytes and/or the NK cell-concentrated low-density lymphocytes were treated with IFN-α and histamine/serotonin. The compounds were added, separately or in combination, to mixtures of MNC and K562 target cells at the start of a 16-hour ^51Cr-release assay. The cytotoxicity against K562 in the NK cell-concentrated lymphocyte fraction was increased by IFN-α and unaffected by histamine or serotonin. […] The addition of eluted monocytes to the NK cell concentrated lymphocytes suppressed the baseline cytotoxicity to K562.
In the experiments reported in Table 1, eluted lymphocytes were mixed with monocytes as shown in the table, in a total volume of 150 μl. The data are NKCC (mean ±SEM) of six determinations. Serotonin 10^−4 M and/or IFN-α (25 U/ml) was added at the start of a 16-hour microcytotoxicity test against 10^4 K562 target cells.
(§4) In the results shown in Table 2, MNC from five different donors were used. All compounds were added to mixtures of MNC and target cells at the start of a 6 h (Daudi) or 16 h (K562) effecter and target cell incubation. The effecter cells were obtained from Percoll fractions 7-8, containing 33-55% monocytes.
Cells from the monocyte-containing Percoll fraction 8 were incubated with culture medium, histamine (10^−4 M) or serotonin (10^−4 M) in the presence of IFN-α (0-100 U/ml). The data shown are NKCC (cell lysis %; mean±SEM of six determinations). The compounds were added at the start of a 16 h microcytotoxicity test against K 562 target cells.

[2] = system: Daudi target cells; assay: NK cell cytotoxicity (NKCC), 6-hour 51Cr-release assay against Daudi target cells; format: cell-based, human; conditions: for NKCC (Cell Lysis %) ± SEM after treatment with IFN / NKCC (Cell Lysis %) ± SEM after treatment with Ran + IFN / NKCC (Cell Lysis %) ± SEM after treatment with Ran: Percoll fraction 8; for NKCC (Cell Lysis %) ± SEM after treatment with Ran + IFN: agonist 10^−4 M plus ranitidine 10^−4 M plus IFN-α 25 U/ml; for NKCC (Cell Lysis %) ± SEM after treatment with Ran: agonist 10^−4 M plus ranitidine 10^−4 M; for NKCC after treatment with Medium: no IFN; for potency and effect in intensifying baseline NKCC and restoring the NK cell's response to IFN-α: compared with serotonin, Table 4; for influence on the effect of serotonin on NKCC: ketanserin and ondansetron in equimolar concentrations
Text: as §1, §2, §3, §4
In the experiment shown in Table 3, culture medium (control), histamine (10^−4 M), dimaprit (10^−4 M), ranitidine (ran) (10^−4 M) and/or IFN-α (25 U/ml) were added at the start of a 6-hour ^51Cr release assay using Daudi target cells. The data are representative of three similar experiments. NKCC is given as mean cell lysis %±SEM of six determinations. The effecter cells were recovered from a low-density Percoll fraction 8, containing around 40% monocytes.
In the experiment shown in Table 4, culture medium (control), serotonin, 8-OH-DPAT (+)-ALK and/or IFN-α (25 U/ml) were added at the start of a 6-hour ^51Cr-release assay against Daudi target cells. The NKCC is given as cell lysis %±SEM of six determinations. The effector cells were recovered from the low-density Percoll fraction 7, containing around 36% monocytes.

[3] = agonist 10^−4 M plus IFN-α 25 U/ml, Daudi 6 h
[4] = named agent(s) only, no further additive: histamine, dimaprit, ranitidine 10^−4 M, IFN-α 25 U/ml, Daudi 6 h, Percoll fraction 8, around 40% monocytes
[5] = agonist 10^−4 M plus IFN-α 25 U/ml, Daudi 6 h, Percoll fraction 7
[6] = agonist 10^−4 M, Daudi 6 h, Percoll fraction 7, around 36% monocytes

## NCCc1c[nH]cn1 [Histamine, histamine]
[1]; Exp 1, K562, 15:1, histamine 10^−4 M plus IFN 25 U/ml
  NKCC (cell lysis % ± SEM): 76.4 ± 3%
[1]; Exp 1, K562, 15:1, histamine 10^−5 M plus IFN 25 U/ml
  NKCC (cell lysis % ± SEM): 74.1 ± 1%
[1]; Exp 1, K562, 15:1, histamine 10^−5 M, medium (no IFN)
  NKCC (cell lysis % ± SEM): 54.7 ± 1%
[1]; Exp 1, K562, 15:1, histamine 10^−6 M plus IFN 25 U/ml
  NKCC (cell lysis % ± SEM): 66.0 ± 2%
[1]; Exp 1, K562, 15:1, histamine 10^−6 M, medium (no IFN)
  NKCC (cell lysis % ± SEM): 39.2 ± 1%
[1]; Exp 1, K562, MNC/target 15:1, histamine 10^−4 M, medium (no IFN), monocyte-containing Percoll fractions 7-8
  NKCC (cell lysis % ± SEM): 55.5 ± 1%
[1]; Exp 2, K562, 15:1, histamine 10^−4 M plus IFN 25 U/ml
  NKCC (cell lysis % ± SEM): 67.9 ± 2%
[1]; Exp 2, K562, 15:1, histamine 10^−4 M, medium (no IFN)
  NKCC (cell lysis % ± SEM): 32.4 ± 1%
[1]; Exp 2, K562, 15:1, histamine 10^−5 M plus IFN 25 U/ml
  NKCC (cell lysis % ± SEM): 66.2 ± 1%
[1]; Exp 2, K562, 15:1, histamine 10^−5 M, medium (no IFN)
  NKCC (cell lysis % ± SEM): 27.4 ± 1%
[1]; Exp 2, K562, 15:1, histamine 10^−6 M plus IFN 25 U/ml
  NKCC (cell lysis % ± SEM): 55.4 ± 1%
[1]; Exp 2, K562, 15:1, histamine 10^−6 M, medium (no IFN)
  NKCC (cell lysis % ± SEM): 23.2 ± 2%
[1]; Exp 3, K562, 15:1, histamine 10^−4 M plus IFN 25 U/ml
  NKCC (cell lysis % ± SEM): 71.9 ± 1%
[1]; Exp 3, K562, 15:1, histamine 10^−4 M, medium (no IFN)
  NKCC (cell lysis % ± SEM): 43.3 ± 1%
[1]; Exp 3, K562, 15:1, histamine 10^−5 M plus IFN 25 U/ml
  NKCC (cell lysis % ± SEM): 66.5 ± 2%
[1]; Exp 3, K562, 15:1, histamine 10^−5 M, medium (no IFN)
  NKCC (cell lysis % ± SEM): 38.6 ± 1%
[1]; Exp 3, K562, 15:1, histamine 10^−6 M plus IFN 25 U/ml
  NKCC (cell lysis % ± SEM): 56.3 ± 2%
[1]; Exp 3, K562, 15:1, histamine 10^−6 M, medium (no IFN)
  NKCC (cell lysis % ± SEM): 29.4 ± 1%
[1]
  cytotoxicity against K562 in the NK cell-concentrated lymphocyte fraction: unaffected
  basal cytotoxicity of lymphocytes in mixtures of monocytes and lymphocytes: restored
  monocyte induced inhibition of the NK cell response to IFN-α: eliminated
[2]; Exp 4, Daudi, 30:1, histamine 10^−4 M plus IFN 25 U/ml
  NKCC (cell lysis % ± SEM): 31.7 ± 1%
[2]; Exp 4, Daudi, 30:1, histamine 10^−5 M plus IFN 25 U/ml
  NKCC (cell lysis % ± SEM): 28.3 ± 1%
[2]; Exp 4, Daudi, 30:1, histamine 10^−5 M, medium (no IFN)
  NKCC (cell lysis % ± SEM): 3.5 ± 2%
[2]; Exp 4, Daudi, 30:1, histamine 10^−6 M plus IFN 25 U/ml
  NKCC (cell lysis % ± SEM): 14.1 ± 1%
[2]; Exp 4, Daudi, 30:1, histamine 10^−6 M, medium (no IFN)
  NKCC (cell lysis % ± SEM): 1.1 ± 0.3%
[2]; Exp 4, Daudi, MNC/target 30:1, histamine 10^−4 M, medium (no IFN)
  NKCC (cell lysis % ± SEM): 4.4 ± 1%
[2]; Exp 5, Daudi, 30:1, histamine 10^−4 M plus IFN 25 U/ml
  NKCC (cell lysis % ± SEM): 61.3 ± 3%
[2]; Exp 5, Daudi, 30:1, histamine 10^−4 M, medium (no IFN)
  NKCC (cell lysis % ± SEM): 13.5 ± 1%
[2]; Exp 5, Daudi, 30:1, histamine 10^−5 M plus IFN 25 U/ml
  NKCC (cell lysis % ± SEM): 52.3 ± 2%
[2]; Exp 5, Daudi, 30:1, histamine 10^−5 M, medium (no IFN)
  NKCC (cell lysis % ± SEM): 9.7 ± 1%
[2]; Exp 5, Daudi, 30:1, histamine 10^−6 M plus IFN 25 U/ml
  NKCC (cell lysis % ± SEM): 31.7 ± 1%
[2]; Exp 5, Daudi, 30:1, histamine 10^−6 M, medium (no IFN)
  NKCC (cell lysis % ± SEM): 2.5 ± 1%
[2]; [3]
  NKCC (Cell Lysis %) ± SEM after treatment with IFN: 31.7 ± 0.3%
[2]; Daudi 6 h
  NKCC (Cell Lysis %) ± SEM after treatment with Ran + IFN: 1.6 ± 0.2%
  NKCC (Cell Lysis %) ± SEM after treatment with Ran: 1.5 ± 0.3%
[2]; [4]
  NKCC (cell lysis % ± SEM): 9.4 ± 0.3%

## NCCc1c[nH]c2ccc(O)cc12 [Serotonin, serotonin]
[1]
  cytotoxicity against K562 in the NK cell-concentrated lymphocyte fraction: unaffected
  basal cytotoxicity of lymphocytes in mixtures of monocytes and lymphocytes: restored
  monocyte induced inhibition of the NK cell response to IFN-α: eliminated
[1]; monocytes 0, lymphocytes 12 (×10^−4)
  NK cell cytotoxicity (NKCC) after treatment: 34 ± 3%
[1]; monocytes 6, lymphocytes 12 (×10^−4)
  NK cell cytotoxicity (NKCC) after treatment: 31 ± 2%
[1]; monocytes 12, lymphocytes 12 (×10^−4)
  NK cell cytotoxicity (NKCC) after treatment: 31 ± 2%
[2]; [5]
  NKCC after treatment with IFN: 44.3 ± 1%
[2]; [6]
  NKCC after treatment with Medium: 10.4 ± 1%
[2]; agonist 10^−5 M plus IFN-α 25 U/ml, Daudi 6 h, Percoll fraction 7
  NKCC after treatment with IFN: 33.2 ± 1%
[2]; agonist 10^−5 M, Daudi 6 h, Percoll fraction 7
  NKCC after treatment with Medium: 4.5 ± 0.3%
[2]; agonist 10^−6 M plus IFN-α 25 U/ml, Daudi 6 h, Percoll fraction 7
  NKCC after treatment with IFN: 12.3 ± 1%
[2]; agonist 10^−6 M, Daudi 6 h, Percoll fraction 7
  NKCC after treatment with Medium: 2.2 ± 0.4%

## CN(C)CCCSC(=N)N [Dimaprit, dimaprit, reference compound]
[2]; [3]
  NKCC (Cell Lysis %) ± SEM after treatment with IFN: 32.6 ± 1%
[2]; Daudi 6 h
  NKCC (Cell Lysis %) ± SEM after treatment with Ran + IFN: 0.5 ± 0.5%
  NKCC (Cell Lysis %) ± SEM after treatment with Ran: 0.4 ± 0.4%
[2]; [4]
  NKCC (cell lysis % ± SEM): 6.4 ± 1%
[2]; simultaneous treatment, Table 3
  effect of histamine on monocyte-induced suppression of resting and IFN-α-activated NK cells: influence of the agent: imitated

## CCCN(CCC)C1CCc2cccc(O)c2C1 (stereo not drawn) [8-OH-DPAT, 8-hydroxy-2-(di-n-propylamino)tetralin, reference compound]
[2]; [5]
  NKCC after treatment with IFN: 43.3 ± 1%
[2]; [6]
  NKCC after treatment with Medium: 8.8 ± 1%
[2]
  potency and effect in intensifying baseline NKCC and restoring the NK cell's response to IFN-α: comparable to that of serotonin

## O=C(c1ccc(F)cc1)C1CCN(CCn2c(=O)[nH]c3ccccc3c2=O)CC1 [Ketanserin, reference compound]
[2]; ranitidine 10^−4 M
  influence on the effect of serotonin on NKCC: did not influence the effect of serotonin

## Cc1nccn1CC1CCc2c(c3ccccc3n2C)C1=O (stereo not drawn) [ondansetron, reference compound]
[2]; ranitidine 10^−4 M
  influence on the effect of serotonin on NKCC: did not influence the effect of serotonin

## CCCN(CCC)[C@H]1CCc2cccc(O)c2[C@H]1C (relative stereo) [(+)-ALK-3, cis-8-hydroxy-1-methyl-2-(di-n-propylamino)tetralin, reference compound]
[2]; [5]
  NKCC after treatment with IFN: 40.4 ± 1%
[2]; [6]
  NKCC after treatment with Medium: 9.1 ± 1%
[2]
  potency and effect in intensifying baseline NKCC and restoring the NK cell's response to IFN-α: comparable to that of serotonin

## CNC(=C[N+](=O)[O-])NCCSCc1ccc(CN(C)C)o1 [Ran, ranitidine, reference compound]
[2]; [4]
  NKCC (cell lysis % ± SEM): 0.0 ± 0.1%
